Measured values taken from US10011877B2, “Treatment of bladder cancer to overcome chemoresistance” (Genedia Biotech Co., Ltd., priority 2015, dated 2018).

Key:
[1] = system: H-bc-derived tumor xenografts; test: H-bc-derived tumor xenografts in nude mice, tumor weight day 25; format: in vivo, BALB/c male nude mice; details: H-bc tumors, Pa 45 ug/mouse intraperitoneal once in 2 days
From the text: (§1) Animal experiments were undertaken in accordance with the National Institutes of Health Guide for the Care and Use of Laboratory Animals. BALB/c male nude mice aged of 8-12 weeks were used for this study. 5637 or H-bc cells were embedded in BD Matrigel Matrix (Becton, Dickinson, Franklin Lakes, N.J., USA) and subcutaneously injected into the four sites at the back of mice as following: 1.7×10^7 cells/site for 5637, 0.7×10^7 cells/site for H-bc, 4 sites/mouse, 6 mice for 5637, 6 mice for H-bc, respectively. From the fourth day after cell injection, all 5637-generated tumors were intratumorally injected with 2 nM miR-193a-3p agomiR or miR-193a-5p agomiR, while H-bc-generated tumors were injected with 4 nM miR-193a-3p/-5p/Mock antagomiR/PBS in a similar manner. From the sixth day after cell injection, three mice from 5637 and three from H-bc intraperitoneally received Pa (45 ug/mouse) once in 2 days. The remaining six mice (three from 5637 and three from H-bc) received PBS as a mock treatment control. Mice were humanely killed on day 25, and the tumors were weighed and photographed. The tumor weight was described as the mean±S.D.
(§2) Animal experiments were undertaken in accordance with the National Institutes of Health Guide for the Care and Use of Laboratory Animals. BALB/c male nude mice of 8-12 weeks of age were used for this study. […]

[2] = system: 5637 cell-derived tumor xenograft; test: 5637-derived tumor xenografts in nude mice, tumor weight day 25; format: in vivo, BALB/c male nude mice; details: 5637 tumors, Pa 45 ug/mouse intraperitoneal once in 2 days
From the text: as §1, §2

## CC(=O)O[C@H]1C(=O)[C@@]2(C)[C@H]([C@H](OC(=O)c3ccccc3)[C@]3(O)C[C@H](OC(=O)[C@H](O)[C@@H](NC(=O)c4ccccc4)c4ccccc4)C(C)=C1C3(C)C)[C@]1(OC(C)=O)CO[C@@H]1C[C@@H]2O [Pacilitaxol, Paclitaxel]
[1]
  tumor weight ratio of the Pa treated over PBS treated: 0.40
[2]
  tumor weight ratio of the Pa treated over PBS treated: 0.283
